Results as given in US20110053872A1, “Pharmaceutical Composition For Preventing And Treating Diabetic Nephropathy And The Preparation Method Thereof” (GUANGZHOU CONSUN MEDICINE R & D CO., LTD., priority 2009, published 2011).

Columns and labels:
[1] = test system: Rat mesangial cell line HBZY21; test: High glucose-induced rat mesangial cell proliferation (MTT reduction assay); type: cell-based; details: 25 mM glucose, 24 h
Method: (§1) The mesangial cells in their exponential growth phase were cultured in 96-well plates at densities of 50000 cm^−2 in DMEM (5 mM glucose) at 37° C. in 5% CO2-95% air for 24 h. After pre-incubation in DMEM supplemented without fetal calf serum for 24 h, cells were then treated with various concentrations of glucose or AGEs for 24 h, 48 h, 72 h, 96 h, respectively.
(§2) According to the aboved method, after pre-incubation in DMEM supplemented without fetal calf serum for 24 h, cells were pretreated with 25 mM glucose, then were treated with various concentrations of reagents as indicated: normal glucose group (NG, 5.5 mM glucose); high glucose group (HG, 25 mM glucose); CAL group (CAL, 10, 100 nM); CAG group (CAG, 10, 100 nM); CAL+CAG group (CAL:CAG, 10 μg/ml:5 μg/ml, 5 μg/ml:10 μg/ml); Radix Astragali group (RA, 50 mg/ml aqueous extract). The plates were then incubated for 24 h. Proliferation was examined by MTT reduction assay. Experimental conditions were tested in sextuplicate (six wells of the 96-well plate per experimental condition).

[2] = test system: Rat mesangial cell line HBZY21; test: AGEs-induced rat mesangial cell proliferation (MTT reduction assay); type: cell-based; details: 0.25 mg/ml AGEs, 24 h
Method: as §1
as §2, with “Cells” for “According to the aboved method, after pre-incubation in DMEM supplemented without fetal calf serum for 24 h, cells”, “0.25 mg/mlAGEs,” for “25 mM glucose,”, “AGEs” for “high glucose”, “(AGEs, 0.25 mg/mlAGEs);” for “(HG, 25 mM glucose);”

rat mesangial cells [3] = test: Content of hydroxyproline in cell culture fluid of rat mesangial cells induced by high glucose; type: cell-based; details: high glucose (25 mM)
Method: (§3) The treatment was the same as section 2.1 in Experiment 1. The measurement of matrix proliferation was measured by determinating the content of hydroxyproline and the expression of TGFβ-1.
(§4) The coverslips were pre-placed in the 24-wells plates to stick the cells. The cells were treated with various concentrations of reagents as indicated in Experiment 1. After the cells covered with coverslip, the supernatant was used for the determination of hydroxyproline and the slides of cells were treated with stained with immunohistochemical and PAS staining. The cells cultured without TGFβ-1 antibody were taken as the negative control.

rat mesangial cells [4] = test: ECM accrementition induced by high glucose (PAS staining, FIG. 1); type: cell-based; details: 25 mM glucose
Method: wherein A: normal glucose group; B: high glucose group (25 mM); C: Radix Astragali group (RA, 50 mg/ml aqueous extract); D: CAL group (100 nM); E: CAL group (10 nM); F: CAL group (1 nM); G: CAG group (100 nM); H: CAG group (10 nM); I: CAG group (1 nM); J: CAL:CAG group (10 μg/ml:5 μg/ml). K: CAL:CAG group ([…]:10 μg/ml).
as §3, §4

TGFβ-1 = TGFβ-1 expression induced by high glucose (immunohistochemical staining, FIG. 2); type: cell-based, rat; details: 25 mM glucose
Method: wherein A: normal glucose group; B: high glucose group (25 mM); C: negative control group; D: CAL group (100 nM); E: CAL group (10 nM); F: CAL group (1 nM); G: CAG group (100 nM); H: CAG group (10 nM); I: CAG group (1 nM); J: Radix Astragali group (RA, 50 mg/ml aqueous extract); K: CAL:CAG group (10 μg/ml:5 μg/ml); L: CAL:CAG group (5 μg/ml:10 μg/ml).
as §3, §4

[5] = test system: DN model Wistar rats induced by streptozotocin; test: STZ DN model rat: urinary production, total protein, microalbumin and creatinine; type: in vivo; details: for Microalbumin: urine
Method: (§5) The DN model Wistar rats were randomly divided into […] with 10 rats each group as indicated: normal glucose group; model group; CAL group (6, 2, 0.7 mg/kg); CAG group (9, 3, 1 mg/kg); CAL+CAG group (CAL:CAG, 2 mg/kg:1 mg/kg, 1 mg/kg:2 mg/kg); Radix Astragali group (5 g/kg); Aminoguanidine group (100 mg/kg).
(§6) The drugs or sodium chloride were intragastric adminstrated once each day for 14 weeks. After the administration, the total volume urine was collected by metabolic cage. The contents of urinary production, total protein, microalbumin and creatinine were determinated, and the biochemical indicators in blood was determinated using automatic biochemical analyzer. Then the kideny with fog Hahn fixation was reserved for histopathological examination.

[6] = test system: DN model Wistar rats induced by streptozotocin; test: STZ DN model rat: serum biochemical indicators; type: in vivo; design: AGEs (advanced glycosylation end products): unit not given here
Method: as §5, §6

[7] = test system: DN model Wistar rats induced by streptozotocin; test: STZ DN model rat: pathohistological indicators; type: in vivo; details: kidney
Method: as §5, §6

[8] = 0.7 mg/kg intragastric once each day for 14 weeks
[9] = 2 mg/kg intragastric once each day for 14 weeks
[10] = 6 mg/kg intragastric once each day for 14 weeks
[11] = 100 mg/kg intragastric once each day for 14 weeks
[12] = 1 mg/kg intragastric once each day for 14 weeks
[13] = 3 mg/kg intragastric once each day for 14 weeks
[14] = 9 mg/kg intragastric once each day for 14 weeks

SMILES: COc1ccc(-c2coc3cc(O)ccc3c2=O)cc1O [CAL]
- OD value (λ = 490 nm) ([1]; 10 nM): 0.34 ± 0.02
- OD value (λ = 490 nm) ([1]; 100 nM): 0.33 ± 0.05
- OD value (λ = 490 nm) ([2]; 10 nM): 0.42 ± 0.04
- OD value (λ = 490 nm) ([2]; 100 nM): 0.34 ± 0.04
- Content of hydroxyproline in cell culture fluid (rat mesangial cells [3]; 10 nM): 7.15 ± 1.19 µg/mL
- Content of hydroxyproline in cell culture fluid (rat mesangial cells [3]; 100 nM): 6.65 ± 1.74 µg/mL
- ECM accrementition induced by high glucose (rat mesangial cells [4]): inhibited
- expression of TGFβ-1 induced by high glucose (TGFβ-1): inhibited
- Urinary production [5, 8]: 59.9 ± 21.8 mL
- Urine creatinine [5, 8]: 1.4 ± 0.6 mM
- Urine protein [5, 8]: 69.1 ± 20.4 mg
- Urinary production [5, 9]: 41.3 ± 16.8 mL
- Urine creatinine [5, 9]: 2.9 ± 1.2 mM
- Urine protein [5, 9]: 54.0 ± 17.4 mg
- Urinary production [5, 10]: 35.9 ± 22.2 mL
- Urine creatinine [5, 10]: 4.3 ± 2.0 mM
- Urine protein [5, 10]: 46.2 ± 21.3 mg
- Microalbumin [5, 8]: 1.57 ± 0.56 mg
- Microalbumin [5, 9]: 0.93 ± 0.55 mg
- Microalbumin [5, 10]: 0.92 ± 0.42 mg
- AGEs (advanced glycosylation end products) [6, 8]: 290 ± 59
- BUN (Blood urea nitrogen) [6, 8]: 7.0 ± 1.0 mmol/L
- LDL [6, 8]: 1.91 ± 0.55 mmol/L
- MDA (malonaldehyde) [6, 8]: 7.8 ± 2.3 nmol/mL
- SOD (superoxide dismutase) [6, 8]: 498 ± 33 U/ml
- Scr (serum creatinine) [6, 8]: 91.0 ± 31.1 µmol/L
- triglyceride [6, 8]: 3.23 ± 0.76 mmol/L
- AGEs (advanced glycosylation end products) [6, 9]: 289 ± 56
- BUN (Blood urea nitrogen) [6, 9]: 6.6 ± 1.2 mmol/L
- LDL [6, 9]: 1.51 ± 0.53 mmol/L
- MDA (malonaldehyde) [6, 9]: 6.8 ± 1.9 nmol/mL
- SOD (superoxide dismutase) [6, 9]: 513 ± 41 U/ml
- Scr (serum creatinine) [6, 9]: 76.6 ± 24.5 µmol/L
- triglyceride [6, 9]: 2.76 ± 0.80 mmol/L
- AGEs (advanced glycosylation end products) [6, 10]: 281 ± 78
- BUN (Blood urea nitrogen) [6, 10]: 6.5 ± 1.5 mmol/L
- LDL [6, 10]: 1.43 ± 0.36 mmol/L
- MDA (malonaldehyde) [6, 10]: 6.8 ± 1.3 nmol/mL
- SOD (superoxide dismutase) [6, 10]: 520 ± 29 U/ml
- Scr (serum creatinine) [6, 10]: 75.2 ± 17.1 µmol/L
- triglyceride [6, 10]: 2.57 ± 0.80 mmol/L
- ECM score (PAS %) [7, 8]: 33.1 ± 5.1%
- Patho-score [7, 8]: 2.7 ± 1.0
- TGFβ-1 (%) [7, 8]: 19.3 ± 6.3 %
- ECM score (PAS %) [7, 9]: 29.8 ± 5.6 %
- Patho-score [7, 9]: 1.8 ± 1.3
- TGFβ-1 (%) [7, 9]: 17.6 ± 5.8 %
- ECM score (PAS %) [7, 10]: 27.0 ± 5.5 %
- Patho-score [7, 10]: 1.6 ± 1.1
- TGFβ-1 (%) [7, 10]: 8.8 ± 3.2 %

SMILES: N=C(N)NN [Aminoguanidine, reference compound]
- Urinary production [5, 11]: 36.2 ± 21.8 mL
- Urine creatinine [5, 11]: 4.0 ± 2.3 mM
- Urine protein [5, 11]: 43.2 ± 29.9 mg
- Microalbumin [5, 11]: 1.00 ± 0.27 mg
- AGEs (advanced glycosylation end products) [6, 11]: 283 ± 78
- BUN (Blood urea nitrogen) [6, 11]: 6.6 ± 0.8 mmol/L
- LDL [6, 11]: 2.01 ± 0.58 mmol/L
- MDA (malonaldehyde) [6, 11]: 5.9 ± 1.7 nmol/mL
- SOD (superoxide dismutase) [6, 11]: 516 ± 20 U/ml
- Scr (serum creatinine) [6, 11]: 77.7 ± 20.3 µmol/L
- triglyceride [6, 11]: 3.35 ± 0.87 mmol/L
- ECM score (PAS %) [7, 11]: 26.5 ± 4.3 %
- Patho-score [7, 11]: 2.1 ± 1.0
- TGFβ-1 (%) [7, 11]: 11.7 ± 5.7 %

SMILES: COc1ccc(-c2coc3cc(O[C@@H]4O[C@H](CO)[C@@H](O)[C@H](O)[C@H]4O)ccc3c2=O)cc1O [CAG, 3′-hydroxy-4′-methoxyisoflavone-7-O-β-D-glucopyranoside]
- OD value (λ = 490 nm) ([1]; 10 nM): 0.35 ± 0.04
- OD value (λ = 490 nm) ([1]; 100 nM): 0.33 ± 0.03
- OD value (λ = 490 nm) ([2]; 10 nM): 0.34 ± 0.06
- OD value (λ = 490 nm) ([2]; 100 nM): 0.33 ± 0.04
- Content of hydroxyproline in cell culture fluid (rat mesangial cells [3]; 10 nM): 6.25 ± 1.20 µg/mL
- Content of hydroxyproline in cell culture fluid (rat mesangial cells [3]; 100 nM): 6.00 ± 1.53 µg/mL
- ECM accrementition induced by high glucose (rat mesangial cells [4]): inhibited
- expression of TGFβ-1 induced by high glucose (TGFβ-1): inhibited
- Urinary production [5, 12]: 58.9 ± 20.5 mL
- Urine creatinine [5, 12]: 1.3 ± 0.6 mM
- Urine protein [5, 12]: 67.1 ± 18.4 mg
- Urinary production [5, 13]: 42.3 ± 12.8 mL
- Urine creatinine [5, 13]: 2.7 ± 1.1 mM
- Urine protein [5, 13]: 55.0 ± 13.4 mg
- Urinary production [5, 14]: 33.9 ± 20.2 mL
- Urine creatinine [5, 14]: 4.2 ± 1.6 mM
- Urine protein [5, 14]: 44.2 ± 20.6 mg
- Microalbumin [5, 12]: 1.52 ± 0.56 mg
- Microalbumin [5, 13]: 0.90 ± 0.45 mg
- Microalbumin [5, 14]: 0.93 ± 0.22 mg
- AGEs (advanced glycosylation end products) [6, 12]: 288 ± 44
- BUN (Blood urea nitrogen) [6, 12]: 6.9 ± 0.9 mmol/L
- LDL [6, 12]: 1.94 ± 0.44 mmol/L
- MDA (malonaldehyde) [6, 12]: 7.9 ± 1.6 nmol/mL
- SOD (superoxide dismutase) [6, 12]: 490 ± 23 U/ml
- Scr (serum creatinine) [6, 12]: 89.0 ± 21.1 µmol/L
- triglyceride [6, 12]: 3.20 ± 0.71 mmol/L
- AGEs (advanced glycosylation end products) [6, 13]: 281 ± 46
- BUN (Blood urea nitrogen) [6, 13]: 6.7 ± 0.8 mmol/L
- LDL [6, 13]: 1.60 ± 0.43 mmol/L
- MDA (malonaldehyde) [6, 13]: 6.5 ± 1.4 nmol/mL
- SOD (superoxide dismutase) [6, 13]: 502 ± 31 U/ml
- Scr (serum creatinine) [6, 13]: 73.5 ± 22.5 µmol/L
- triglyceride [6, 13]: 2.66 ± 0.72 mmol/L
- AGEs (advanced glycosylation end products) [6, 14]: 275 ± 68
- BUN (Blood urea nitrogen) [6, 14]: 5.9 ± 1.6 mmol/L
- LDL [6, 14]: 1.23 ± 0.26 mmol/L
- MDA (malonaldehyde) [6, 14]: 6.5 ± 1.2 nmol/mL
- SOD (superoxide dismutase) [6, 14]: 512 ± 19 U/ml
- Scr (serum creatinine) [6, 14]: 74.2 ± 16.0 µmol/L
- triglyceride [6, 14]: 2.43 ± 0.70 mmol/L
- ECM score (PAS %) [7, 12]: 32.5 ± 4.1%
- Patho-score [7, 12]: 2.8 ± 0.9
- TGFβ-1 (%) [7, 12]: 20.0 ± 4.3 %
- ECM score (PAS %) [7, 13]: 28.9 ± 5.4 %
- Patho-score [7, 13]: 1.9 ± 1.1
- TGFβ-1 (%) [7, 13]: 16.2 ± 4.7 %
- ECM score (PAS %) [7, 14]: 26.9 ± 4.5 %
- Patho-score [7, 14]: 1.7 ± 0.9
- TGFβ-1 (%) [7, 14]: 9.1 ± 2.2 %
